Key:
Format in all cases: in vivo
[1] = tested on: directly sowed Oryza sativa; assay: Test Example 4: effect on crop by application to foliage (diluvial soil, plastic box); settings: Application herbicide amount 320 g/ha; foliage application
In short: (§1)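 Read-out is a 0–5 visual grade of herbicidal ratio (5: ≥90%, almost withered; 0: ≤5%) taken three weeks after treatment. Compound was applied as a diluted emulsion to stem and leaf parts of 14-day greenhouse-grown plants (25° C. to 30° C.) at rates expressed as g/ha.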

Zea mays = assay: as above; settings: Application herbicide amount 320 g/ha; foliage application
In short: as §1

Triticum aestivum = assay: as above; settings: Application herbicide amount 320 g/ha; foliage application
In short: as §1

Glycine max = assay: as above; settings: Application herbicide amount 320 g/ha; foliage application
In short: as §1

[2] = tested on: Beta vulgaris ssp. vulgaris; assay: as above; settings: Application herbicide amount 320 g/ha; foliage application
In short: as §1

Brassica campestris L. = assay: as above; settings: Application herbicide amount 320 g/ha; foliage application
In short: as §1

Lolium multiflorum Lam. = assay: Test Example 4: herbicidal effect by application to foliage (diluvial soil, plastic box); settings: Application herbicide amount 320 g/ha; foliage application
In short: as §1

Stellaria media = assay: as above; settings: Application herbicide amount 320 g/ha; foliage application
In short: as §1

Alopecurus myosuroides = assay: as above; settings: Application herbicide amount 320 g/ha; foliage application
In short: as §1

Avena fatua = assay: as above; settings: Application herbicide amount 320 g/ha; foliage application
In short: as §1

Abutilon theophrasti = assay: as above; settings: Application herbicide amount 320 g/ha; foliage application
In short: as §1

Galium spurium = assay: as above; settings: Application herbicide amount 320 g/ha; foliage application
In short: as §1

Setaria viridis = assay: as above; settings: Application herbicide amount 320 g/ha; foliage application
In short: as §1

Chenopodium album = assay: as above; settings: Application herbicide amount 320 g/ha; foliage application
In short: as §1

Digitaria ciliaris = assay: as above; settings: Application herbicide amount 320 g/ha; foliage application
In short: as §1

Veronica persica = assay: as above; settings: Application herbicide amount 320 g/ha; foliage application
In short: as §1

Amaranthus retroflexus = assay: as above; settings: Application herbicide amount 320 g/ha; foliage application
In short: as §1

Apera spica-venti. = assay: as above; settings: Application herbicide amount 320 g/ha; foliage application
In short: as §1

[3] = tested on: Echinochloa crus-galli var. crus-galli; assay: as above; settings: Application herbicide amount 320 g/ha; foliage application
In short: as §1

[4] = tested on: transplanted Oryza sativa; assay: Test Example 1: effect on crop, application before weed generation in submerged conditions; settings: Application herbicide amount 320 g/ha; Seventeenth Table
In short: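 Submerged pot test: alluvial soil, 4 cm water, seeds sown mixed, 2.5-leaf rice transplanted; emulsion in water applied to surface day of sowing, dose g/ha; greenhouse 25–30° C.; 3 wk; 0–5 rating.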

Row | Structure (SMILES) | b (directly sowed Oryza sativa) effect on crop grade [1] | c (Zea mays) effect on crop grade (Zea mays) | e (Triticum aestivum) effect on crop grade (Triticum aestivum) | d (Glycine max) effect on crop grade (Glycine max) | f (Beta vulgaris ssp. vulgaris) effect on crop grade [2] | g (Brassica campestris L.) effect on crop grade (Brassica campestris L.) | K (Lolium multiflorum Lam.) herbicidal effect grade (Lolium multiflorum Lam.) | P (Stellaria media) herbicidal effect grade (Stellaria media) | J (Alopecurus myosuroides) herbicidal effect grade (Alopecurus myosuroides) | I (Avena fatua) herbicidal effect grade (Avena fatua) | M (Abutilon theophrasti) herbicidal effect grade (Abutilon theophrasti) | Q (Galium spurium) herbicidal effect grade (Galium spurium) | G (Setaria viridis) herbicidal effect grade (Setaria viridis) | O (Chenopodium album) herbicidal effect grade (Chenopodium album) | F (Digitaria ciliaris) herbicidal effect grade (Digitaria ciliaris) | R (Veronica persica) herbicidal effect grade (Veronica persica) | N (Amaranthus retroflexus) herbicidal effect grade (Amaranthus retroflexus) | L (Apera spica-venti.) herbicidal effect grade (Apera spica-venti.) | H (Echinochloa crus-galli var. crus-galli) herbicidal effect grade [3] | a: transplanted Oryza sativa (effect on crop grade) [4]
1 | CCCSc1nnc2c(C(=O)Nc3nnco3)ccc(C(F)(F)F)n12 [1-108] | 1 (Herbicidal ratio of 5% or more and less than 20%) | 1 (Herbicidal ratio of 5% or more and less than 20%) | 1 (Herbicidal ratio of 5% or more and less than 20%) | 4 (Herbicidal ratio of 70% or more and less than 90%) | 5 (Herbicidal ratio of 90% or more (almost completely withered)) | 3 (Herbicidal ratio of 40% or more and less than 70%) | 2 (Herbicidal ratio of 20% or more and less than 40%) | 5 (Herbicidal ratio of 90% or more (almost completely withered)) | 1 (Herbicidal ratio of 5% or more and less than 20%) | 2 (Herbicidal ratio of 20% or more and less than 40%) | 4 (Herbicidal ratio of 70% or more and less than 90%) | 3 (Herbicidal ratio of 40% or more and less than 70%) | 5 (Herbicidal ratio of 90% or more (almost completely withered)) | 5 (Herbicidal ratio of 90% or more (almost completely withered)) | 5 (Herbicidal ratio of 90% or more (almost completely withered)) | 5 (Herbicidal ratio of 90% or more (almost completely withered)) | 5 (Herbicidal ratio of 90% or more (almost completely withered)) | 2 (Herbicidal ratio of 20% or more and less than 40%) | 5 (Herbicidal ratio of 90% or more (almost completely withered)) | 0 (Herbicidal ratio of 5% or less (almost no effect))
2 | COCCNc1nnc2c(C(=O)Nc3nnc(C)o3)ccc(C(F)(F)F)n12 [1-109] | 0 (Herbicidal ratio of 5% or less (almost no effect)) | 1 (Herbicidal ratio of 5% or more and less than 20%) | 0 (Herbicidal ratio of 5% or less (almost no effect)) | 3 (Herbicidal ratio of 40% or more and less than 70%) | 4 (Herbicidal ratio of 70% or more and less than 90%) | 4 (Herbicidal ratio of 70% or more and less than 90%) | 0 (Herbicidal ratio of 5% or less (almost no effect)) | 4 (Herbicidal ratio of 70% or more and less than 90%) | 0 (Herbicidal ratio of 5% or less (almost no effect)) | 1 (Herbicidal ratio of 5% or more and less than 20%) | 4 (Herbicidal ratio of 70% or more and less than 90%) | 2 (Herbicidal ratio of 20% or more and less than 40%) | 3 (Herbicidal ratio of 40% or more and less than 70%) | 5 (Herbicidal ratio of 90% or more (almost completely withered)) | 4 (Herbicidal ratio of 70% or more and less than 90%) | 4 (Herbicidal ratio of 70% or more and less than 90%) | 4 (Herbicidal ratio of 70% or more and less than 90%) | 0 (Herbicidal ratio of 5% or less (almost no effect)) | 5 (Herbicidal ratio of 90% or more (almost completely withered)) | 0 (Herbicidal ratio of 5% or less (almost no effect))
3 | O=C(Nc1nnco1)c1ccc(C(F)(F)F)n2c(N3CCOCC3)nnc12 [1-110] | 4 (Herbicidal ratio of 70% or more and less than 90%) | 4 (Herbicidal ratio of 70% or more and less than 90%) | 3 (Herbicidal ratio of 40% or more and less than 70%) | 4 (Herbicidal ratio of 70% or more and less than 90%) | 5 (Herbicidal ratio of 90% or more (almost completely withered)) | 5 (Herbicidal ratio of 90% or more (almost completely withered)) | 3 (Herbicidal ratio of 40% or more and less than 70%) | 5 (Herbicidal ratio of 90% or more (almost completely withered)) | 3 (Herbicidal ratio of 40% or more and less than 70%) | 4 (Herbicidal ratio of 70% or more and less than 90%) | 4 (Herbicidal ratio of 70% or more and less than 90%) | 4 (Herbicidal ratio of 70% or more and less than 90%) | 5 (Herbicidal ratio of 90% or more (almost completely withered)) | 5 (Herbicidal ratio of 90% or more (almost completely withered)) | 5 (Herbicidal ratio of 90% or more (almost completely withered)) | 5 (Herbicidal ratio of 90% or more (almost completely withered)) | 5 (Herbicidal ratio of 90% or more (almost completely withered)) | 3 (Herbicidal ratio of 40% or more and less than 70%) | 5 (Herbicidal ratio of 90% or more (almost completely withered)) | 4 (Herbicidal ratio of 70% or more and less than 90%)
4 | CCOc1nnc2c(C(=O)Nc3nnco3)ccc(C(F)(F)F)n12 [1-112] | 0 (Herbicidal ratio of 5% or less (almost no effect)) | 0 (Herbicidal ratio of 5% or less (almost no effect)) | 0 (Herbicidal ratio of 5% or less (almost no effect)) | 3 (Herbicidal ratio of 40% or more and less than 70%) | 5 (Herbicidal ratio of 90% or more (almost completely withered)) | 3 (Herbicidal ratio of 40% or more and less than 70%) | 0 (Herbicidal ratio of 5% or less (almost no effect)) | 4 (Herbicidal ratio of 70% or more and less than 90%) | 0 (Herbicidal ratio of 5% or less (almost no effect)) | 0 (Herbicidal ratio of 5% or less (almost no effect)) | 3 (Herbicidal ratio of 40% or more and less than 70%) | 0 (Herbicidal ratio of 5% or less (almost no effect)) | 0 (Herbicidal ratio of 5% or less (almost no effect)) | 5 (Herbicidal ratio of 90% or more (almost completely withered)) | 1 (Herbicidal ratio of 5% or more and less than 20%) | 5 (Herbicidal ratio of 90% or more (almost completely withered)) | 4 (Herbicidal ratio of 70% or more and less than 90%) | 0 (Herbicidal ratio of 5% or less (almost no effect)) | 2 (Herbicidal ratio of 20% or more and less than 40%) | 0 (Herbicidal ratio of 5% or less (almost no effect))

From US9708314B2, “Heterocyclic amide compound” (NISSAN CHEMICAL INDUSTRIES, LTD., priority 2013, dated 2017)
